Measured values: article PMC12164026, “Plant-derived nodule-specific cysteine-rich peptides as potent antifungal agents against Cryptococcus neoformans: mechanisms of action, chimeric peptide enhancement, and immunomodulatory effects” (Current Research in Microbial Sciences, 2025)
In brackets after ≈: the same amount, converted by molar mass. Peptide text beside a SMILES is read from it.

What was measured:
[1] = system: Cryptococcus neoformans IFM 5844; experiment: microbe, parasite or virus in culture; type: cell-based; details: IFM 5844, 48 h; read-out: MIC
Experimental: The susceptibility of Cryptococcus neoformans IFM 5844 to 20 peptides (Supplementary Table 1) was tested in a widely used synthetic medium to cultivate yeasts (YNB) and in a serum-free medium what is able to support the proliferation of macrophage cells (X-VIVO).
YNB medium: five-fold diluted Difco Yeast Nitrogen Base w/o Amino Acids medium (Becton, Dickinson and Company, Sparks, MD, USA) supplemented with 1 % dextrose
The minimal inhibitory concentration (MIC) of each peptide was determined by using micro-dilution assay. The C. neoformans suspensions were adjusted to 5 × 10^4 cells/mL concentration in either YNB or X-VIVO medium. A 96-well microtiter plate was prepared by adding 95 µL suspension per well followed by 5 µL of serially two-fold diluted peptide solutions achieving a final volume of 100 µl. The concentration of the peptides ranged from 25 to 0.39 µM. For control samples, 5 µL pure medium was added to the yeast cell suspension instead of peptides. Plates were incubated at 37 °C for 48 h in X-VIVO medium and 30 °C for 72 h in YNB medium. After incubation, optical density was measured at 620 nm using a SPECTROstar Nano plate reader (BMG LabTech, Offenburg, Germany). […] The experiments were carried out in three independent biological replicates.

[2] = system: C. neoformans IFM 5844 cells; experiment: Cell membrane permeability, calcein-AM assay by flow cytometry; type: cell-based, Cryptococcus neoformans; details: half-MIC, 2 h, 30 °C, YNB
Experimental: The effect of the peptides on the cell membrane permeability of C. neoformans IFM 5844 cells was checked by flow cytometry with calcein-AM assay ([Olson, et al., 2001]). Calcein-acetoxymethyl ester (calcein-AM) is a membrane-permeable live-cell dye that, upon entering the cell, is cleaved by intracellular esterases, converting it into calcein, a membrane-impermeable fluorescent marker. The assay was carried out by suspending a total of 1 × 10^7 cells in 100 µl YNB medium containing 20 µg/mL indomethacin (Sigma-Aldrich, Saint Louis, MO, USA) and incubating them at 30 °C for 30 min to inhibit calcein transporters. Following this pre-treatment, membrane-permeable calcein-AM (Invitrogen, Waltham, MA, USA) was added to a final concentration of 5 µg/mL, and the samples were incubated at 30 °C for 3 h allowing the calcein-AM to enter the cells where esterases converted it to fluorescent calcein. After incubation, cells were washed twice with sterile distilled water and subsequently exposed to peptides at half-MIC concentrations in YNB medium for 2 h at 30 °C. Following peptide treatment, cells were washed twice with sterile distilled water, and fluorescence intensity was measured using a FlowSight® flow cytometer (Amnis-EMD Millipore) equipped with a 488-nm excitation laser. Intact cells stained with calcein-AM but not exposed to peptides served as controls. To ensure statistical reliability, four independent experiments were conducted, and fluorescence intensity was recorded from 10,000 cells per sample during each experiment.

[3] = system: Cryptococcus neoformans IFM 5844; experiment: Minimal fungicidal concentration (MFC) determination, spotting on YPD; type: cell-based; details: cultures from MIC assays diluted and spotted onto solid YPD, 30 °C, 48 h
Experimental: Minimal fungicidal concentration (MFC) determination. To assess fungicidal activity, both control and peptide-treated cultures from the MIC assays were diluted 10-fold and 100-fold in sterile distilled water. Five µL from each dilution was then spotted onto solid YPD medium (1 % pepton, 1 % dextrose, 0.5 % yeast extract, 2 % agar). The plates were incubated at 30 °C for 48 h and fungal growth was evaluated. MFC was defined as the lowest peptide concentration at which no visible fungal growth was detected, indicating complete fungicidal activity.

SMILES: CSCC[C@H](NC(=O)[C@H](CCCCN)NC(=O)[C@H](Cc1ccccc1)NC(=O)[C@H](CC(N)=O)NC(=O)[C@H](CC(C)C)NC(=O)[C@@H]1CCCN1C(=O)[C@@H](N)CCCNC(=N)N)C(=O)N[C@@H](CC(C)C)C(=O)N[C@@H](CCCNC(=N)N)C(=O)N[C@@H](Cc1ccccc1)C(=O)N[C@@H](Cc1c[nH]c2ccccc12)C(=O)NCC(=O)N[C@@H](CCC(N)=O)C(=O)N[C@@H](CCC(N)=O)C(=O)N[C@@H](CCC(N)=O)C(=O)N[C@@H](CS)C(=O)N[C@@H](CCCNC(=N)N)C(=O)N[C@@H](CCCNC(=N)N)C(=O)N1CCC[C@H]1C(=O)N[C@@H](CC(C)C)C(=O)N[C@@H](Cc1ccc(O)cc1)C(=O)N[C@@H](CS)C(=O)N[C@@H](CCCNC(=N)N)C(=O)N[C@@H](CCCNC(=N)N)C(=O)N[C@@H](CCCNC(=N)N)C(N)=O [X1-NCR247C] (H-RPLNFKMLRFWGQQQCRRPLYCRRR-NH2; N-terminus assumed)
- MIC [1]: 1.56 µM (≈ 5.16 µg/mL)
- calcein leakage / membrane permeability disruption [2]: slightly weaker effect
- fungistatic or fungicide mode of action [3]: fungicidal effect
